This passage reports AC50 and IC50 results from ChEMBL document CHEMBL1201862, “PubChem BioAssay data set” (2004).

Broadly, the AC50 is the concentration at which the activity in the assay is half-maximal. For orientation: IC50 means the point on the concentration scale where inhibition reaches its midpoint.

The source made the active and inactive calls. For most assays here, no stated cut-off is given here; in the data, actives have a measured IC50 and inactives only a lower limit.

Type in all cases: functional
Experiment [1] concerns the target T1, Replicative DNA helicase DnaB (Mycobacterium tuberculosis, UniProt P9WMR3).
T1 sequence (P9WMR3 whole entry): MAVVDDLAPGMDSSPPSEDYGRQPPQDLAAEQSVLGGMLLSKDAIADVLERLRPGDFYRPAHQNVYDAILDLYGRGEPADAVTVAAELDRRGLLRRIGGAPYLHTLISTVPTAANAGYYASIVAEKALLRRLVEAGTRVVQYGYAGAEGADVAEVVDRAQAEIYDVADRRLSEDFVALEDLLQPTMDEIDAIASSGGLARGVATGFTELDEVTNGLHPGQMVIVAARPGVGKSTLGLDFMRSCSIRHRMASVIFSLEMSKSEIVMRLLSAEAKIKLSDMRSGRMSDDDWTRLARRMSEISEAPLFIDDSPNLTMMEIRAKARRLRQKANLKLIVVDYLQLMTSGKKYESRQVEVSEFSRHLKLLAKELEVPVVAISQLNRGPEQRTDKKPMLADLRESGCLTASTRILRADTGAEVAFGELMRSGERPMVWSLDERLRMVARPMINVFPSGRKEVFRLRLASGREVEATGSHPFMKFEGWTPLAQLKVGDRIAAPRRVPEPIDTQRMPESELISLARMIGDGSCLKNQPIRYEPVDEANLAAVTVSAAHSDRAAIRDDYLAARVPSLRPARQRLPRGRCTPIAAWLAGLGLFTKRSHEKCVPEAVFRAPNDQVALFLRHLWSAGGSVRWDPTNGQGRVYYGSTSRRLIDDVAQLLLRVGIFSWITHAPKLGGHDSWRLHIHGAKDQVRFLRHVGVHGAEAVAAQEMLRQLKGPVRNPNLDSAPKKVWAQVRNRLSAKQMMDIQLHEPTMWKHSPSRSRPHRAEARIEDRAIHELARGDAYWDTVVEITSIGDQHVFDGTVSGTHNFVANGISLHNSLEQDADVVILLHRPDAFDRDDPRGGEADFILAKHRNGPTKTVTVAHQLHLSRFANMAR
As to the kind of experiment: DnaB intein splicing inhibitors, dose response, biochemical, cell-free fluorescence (AID 449749).

In experiment [2] the target is T2, Apoptotic protease-activating factor 1 (Homo sapiens, UniProt O14727).
T2 sequence (O14727 whole entry): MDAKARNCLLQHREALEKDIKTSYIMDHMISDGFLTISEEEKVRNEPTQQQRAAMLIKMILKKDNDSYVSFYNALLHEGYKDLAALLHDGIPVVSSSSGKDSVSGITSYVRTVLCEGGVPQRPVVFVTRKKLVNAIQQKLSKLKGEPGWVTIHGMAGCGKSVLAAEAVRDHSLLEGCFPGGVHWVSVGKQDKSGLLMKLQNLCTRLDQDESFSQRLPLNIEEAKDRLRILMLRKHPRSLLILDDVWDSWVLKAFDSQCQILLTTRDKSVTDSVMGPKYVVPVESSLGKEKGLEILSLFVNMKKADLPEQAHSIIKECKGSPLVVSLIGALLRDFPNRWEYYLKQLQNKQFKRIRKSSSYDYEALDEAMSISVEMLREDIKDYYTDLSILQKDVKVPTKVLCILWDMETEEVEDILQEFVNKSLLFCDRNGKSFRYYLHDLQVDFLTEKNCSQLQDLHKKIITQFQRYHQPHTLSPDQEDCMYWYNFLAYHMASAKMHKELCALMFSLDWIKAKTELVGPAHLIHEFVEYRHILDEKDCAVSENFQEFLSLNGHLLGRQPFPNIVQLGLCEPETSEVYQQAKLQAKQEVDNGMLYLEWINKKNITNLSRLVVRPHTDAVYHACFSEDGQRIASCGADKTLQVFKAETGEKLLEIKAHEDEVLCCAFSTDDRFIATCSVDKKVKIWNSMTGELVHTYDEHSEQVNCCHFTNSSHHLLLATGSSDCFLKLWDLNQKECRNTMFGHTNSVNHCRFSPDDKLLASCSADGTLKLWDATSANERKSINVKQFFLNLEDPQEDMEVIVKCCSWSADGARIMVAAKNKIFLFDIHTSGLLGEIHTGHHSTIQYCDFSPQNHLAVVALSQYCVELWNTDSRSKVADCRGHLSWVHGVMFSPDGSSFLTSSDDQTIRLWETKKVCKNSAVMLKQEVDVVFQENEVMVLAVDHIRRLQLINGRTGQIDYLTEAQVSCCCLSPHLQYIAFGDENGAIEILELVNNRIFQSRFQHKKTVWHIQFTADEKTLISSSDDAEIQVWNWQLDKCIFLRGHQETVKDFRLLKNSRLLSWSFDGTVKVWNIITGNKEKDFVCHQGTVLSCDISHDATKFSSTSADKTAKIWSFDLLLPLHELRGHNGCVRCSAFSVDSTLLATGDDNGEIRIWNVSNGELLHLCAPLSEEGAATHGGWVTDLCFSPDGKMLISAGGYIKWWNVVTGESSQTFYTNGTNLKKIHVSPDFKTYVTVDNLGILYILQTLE

Experiment [3] has as its target T3, Sentrin-specific protease 8 (Homo sapiens, UniProt Q96LD8).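 Further: luminescence read-out of SENP8 inhibition, dose-response confirmation following an ultra-high-throughput screen.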
T3 sequence (Q96LD8 whole entry): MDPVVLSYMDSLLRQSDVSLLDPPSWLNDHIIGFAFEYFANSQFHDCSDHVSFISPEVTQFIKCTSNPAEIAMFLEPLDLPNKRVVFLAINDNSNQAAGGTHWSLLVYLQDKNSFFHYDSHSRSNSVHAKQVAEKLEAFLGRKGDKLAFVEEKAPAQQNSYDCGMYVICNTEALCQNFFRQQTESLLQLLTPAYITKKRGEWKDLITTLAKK

The target in a further experiment is T4, Caspase-3 (Homo sapiens, UniProt P42574).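 Further: Dose-response selectivity test against caspase-3 for candidate inhibitors of sentrin-specific proteases (SENPs).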
T4 sequence (P42574 whole entry): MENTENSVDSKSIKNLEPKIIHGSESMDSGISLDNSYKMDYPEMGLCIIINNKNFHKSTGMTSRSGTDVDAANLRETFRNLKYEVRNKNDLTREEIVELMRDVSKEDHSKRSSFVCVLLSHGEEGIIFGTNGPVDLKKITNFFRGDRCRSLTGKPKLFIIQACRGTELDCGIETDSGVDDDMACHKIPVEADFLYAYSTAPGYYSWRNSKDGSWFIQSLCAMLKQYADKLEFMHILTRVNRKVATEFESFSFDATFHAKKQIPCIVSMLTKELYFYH

Regarding `Cc1cccc(C)c1-n1cccc1/C=C1\SC(=S)N(c2cccc(C(=O)O)c2)C1=O`, the AC50 in experiment [1] is 3.26 µM (active).

Consider `Oc1ccc(/C=N/Nc2cc(N3CCCC3)nc(N3CCCC3)n2)cc1`, for which the IC50 was 0.707 µM (active) in experiment [2], 22.1 µM (active) in experiment [3] and > 100 µM (inactive) on Caspase-3.

In the case of `COc1ccc(S(=O)(=O)/N=C2\C=C(Nc3ccc(O)cc3)C(=O)c3ccccc32)cc1`, the AC50 in experiment [1] is > 380 µM (inconclusive). For the same compound, in experiment [2], the IC50 is 0.441 µM (active).

With `COc1ccc(/C=N/Nc2cc(N3CCCC3)nc(N3CCCC3)n2)cc1`, the IC50 in experiment [2] is 2.63 µM (active); in experiment [3], 7.52 µM (active); at Caspase-3, > 100 µM (inactive).
